Assay results published in patent US20090240049A1, “Purification of air sensitive steroids” (priority 2008, published 2009).

Assay: Stability of Budesonide on storage, 21-aldehyde and Budesonide content by HPLC
Format: physicochemical
Conditions: for Budenoside HPLC Area % / 21 Aldehyde HPLC Area %: double plastic containers
Protocol: The amount of air-sensitive steroid and/or its 21 aldehyde impurity were determined using HPLC. Common HPLC methods for these steroids and their 21-aldehyde impurities may be found in various monographs see for example for Budesonide and its 21-aldehyde impurity a HPLC method is reported in USP31-NF26, page 1565 (detection limit 0.02%), for Fluocinolone acetonide a HPLC method in European Pharmacopoeia (EP) 6.0, page 1915, and for Methylprednisolone a HPLC method in European Pharmacopoeia (EP) 6.0, page 2393.
Budenoside from three production lots prepared in stainless steel reactors was compared to a lot of Budenoside produced in such a reactor and purified with cysteine according to example 5. All samples were stored in double plastic containers. The samples that were not treated with cysteine were kept at a temperature of 25±2° C. and relative humidity of 60%. The sample treated with cysteine was stored at a temperature that varied from about 0° C. to about 40° C. with no humidity control. As is shown in the table below the amount of the 21-aldehyde impurity in the Budenoside purified according to example 5 is less than 0.07% even after 6 years of storage. The aldehyde content of all samples was measured by HPLC.

[1] = production lot 1 of 3 (c1-c2), not treated with cysteine, 25±2° C., 60% relative humidity, 2 years
[2] = production lot 1 of 3 (c1-c2), not treated with cysteine, 25±2° C., 60% relative humidity, 5 years
[3] = production lot 2 of 3 (c3-c4), not treated with cysteine, 25±2° C., 60% relative humidity, 2 years
[4] = production lot 2 of 3 (c3-c4), not treated with cysteine, 25±2° C., 60% relative humidity, 5 years
[5] = production lot 3 of 3 (c5-c6), not treated with cysteine, 25±2° C., 60% relative humidity, 2 years
[6] = production lot 3 of 3 (c5-c6), not treated with cysteine, 25±2° C., 60% relative humidity, 5 years
[7] = lot purified with cysteine, stored at about 0° C. to about 40° C., no humidity control, 6 years

## CCCC1O[C@@H]2C[C@H]3[C@@H]4CCC5=CC(=O)C=C[C@]5(C)[C@H]4[C@@H](O)C[C@]3(C)[C@]2(C(=O)CO)O1 (stereo partly shown) [Budenoside, Budesonide]
Production lot 1 of 3 (c1-c2), not treated with cysteine, 25±2° C., 60% relative humidity, 0 years
  Budenoside HPLC Area %: 99.0 HPLC Area %
Production lot 1 of 3 (c1-c2), not treated with cysteine, 25±2° C., 60% relative humidity, 1 year
  Budenoside HPLC Area %: 98.8 HPLC Area %
[1]
  21 Aldehyde HPLC Area %: 0.1 HPLC Area %
  Budenoside HPLC Area %: 98.7 HPLC Area %
[2]
  21 Aldehyde HPLC Area %: 0.2 HPLC Area %
  Budenoside HPLC Area %: 98.4 HPLC Area %
Production lot 2 of 3 (c3-c4), not treated with cysteine, 25±2° C., 60% relative humidity, 0 years
  Budenoside HPLC Area %: 99.4 HPLC Area %
Production lot 2 of 3 (c3-c4), not treated with cysteine, 25±2° C., 60% relative humidity, 1 year
  Budenoside HPLC Area %: 98.9 HPLC Area %
[3]
  21 Aldehyde HPLC Area %: 0.6 HPLC Area %
  Budenoside HPLC Area %: 98.5 HPLC Area %
[4]
  21 Aldehyde HPLC Area %: 0.9 HPLC Area %
  Budenoside HPLC Area %: 97.8 HPLC Area %
Production lot 3 of 3 (c5-c6), not treated with cysteine, 25±2° C., 60% relative humidity, 0 years
  Budenoside HPLC Area %: 99.2 HPLC Area %
Production lot 3 of 3 (c5-c6), not treated with cysteine, 25±2° C., 60% relative humidity, 1 year
  Budenoside HPLC Area %: 99.0 HPLC Area %
[5]
  21 Aldehyde HPLC Area %: <0.1 HPLC Area %
  Budenoside HPLC Area %: 99.1 HPLC Area %
[6]
  21 Aldehyde HPLC Area %: <0.2 HPLC Area %
  Budenoside HPLC Area %: 98.2 HPLC Area %

## CCCC1O[C@@H]2C[C@H]3[C@@H]4CCC5=CC(=O)C=C[C@]5(C)[C@H]4[C@@H](O)C[C@]3(C)[C@]2(C(=O)CO)O1 (stereo partly shown) [Budesonide]
After 6 years of storage at about 0° C. to about 40° C., no humidity control
  amount of the 21-aldehyde impurity: less than 0.07%
Lot purified with cysteine, stored at about 0° C. to about 40° C., no humidity control, 0 years
  Budenoside HPLC Area %: 99.76 HPLC Area %
[7]
  21 Aldehyde HPLC Area %: 0.02 HPLC Area %
  Budenoside HPLC Area %: 99.61 HPLC Area %
